# Laboratory results from paper PMC9222498 (Bioactive Materials, 2022).
# What was measured:
# [1] = tested on: orthotopic 4T1 breast cancer model; assay: In vivo antitumor activity, orthotopic 4T1 breast cancer model; set-up: species or system BALB/c mice; details: 10 mg/kg SN38 equiv., i.v., days 0, 3, 6
# [2] = tested on: 4T1 spontaneous metastasis model; assay: In vivo antimetastatic activity, 4T1 spontaneous metastasis model; set-up: species or system mice; details: Day 24
# [3] = tested on: Carboxylesterase; details: after intravenous administration; ref [51]; cited from earlier work
smiles,measurement,setting,value
"CCc1c2c(nc3ccc(OC(=O)N4CCC(N5CCCCC5)CC4)cc13)-c1cc3c(c(=O)n1C2)COC(=O)[C@]3(O)CC [CPT-11, irinotecan]",primary tumor growth,[1],similarly rapid tumor growth compared with the saline-treated group
same,metastasizing tumor cells in liver and lung (H&E),[2],clearly detected metastasizing tumor cells in liver and lung
same,metastatic burden in lymph nodes (H&E),[2]; ipsilateral inguinal lymph node,did not significantly reduce the metastatic burden
same,enzymatic conversion rate to SN38,[3],< 8%
